Experimental findings from patent US10815197B2, “N-sulfonyl benzamides as voltage-gated sodium channel inhibitors” (SHANGHAI HAIYAN PHARMACEUTICAL TECHNOLOGY CO., LTD., priority 2016, dated 2020) are described below.

“Also recorded” adds a separate entry of the source.

Assay [1] concerns SNL-induced cold allodynia in rats. Kind of assay: Cold allodynia in SNL (spinal nerve ligation) rats. The assay is classed as in vivo, rat. The source says:
Assay 3: Cold Allodynia in SNL
The experimental animals were male Sprague-Dawley rats, weighing 140-150 g at the beginning of the experiment. The animals were purchased from Slack company, and food and water were supplied ad lib after purchase. Rats were group-housed, four rats/cage, and individually identified by marking on the tail.
Test Compound and Grouping:
Vehicle: 5% dimethylacetamide(Sinopharm Technology), 5% solutol (Sigma) and 90% saline
Positive control: Pregabalin;
Test compound: compound Z-164;
The positive control and solvent composition of the test compound are 5% dimethylacetamide, 5% solutol and 90% saline.
30 mg/kg Compound Z-164:1.23 mL of dimethylacetamide was added to 148.11 mg of compound Z-164, stirred well until fully dissolved, and then 1.23 mL solutol was added and mixed well. Final volume was made up with 90% saline to 21.44 mL and mixed well before oral administration.
30 mg/kg Pregabalin: 1.08 mL of dimethylacetamide was added to 129.48 mg of Pregabalin, stirred well until fully dissolved, and then 1.08 mL solutol was added and mixed well. Final volume was made up with 90% saline to 21.58 mL and mixed well before oral administration.
1.1. Spinal Nerve Ligation (SNL) model • Surgical procedures are performed aseptically. • The surgical instruments (scissors, tweezers, scalpels, surgical cotton, sutures, retractor) are sterilized prior to surgery. • Animals were anesthetized with pentobarbital (50 mg/kg, i.p.). A toe pinch was used to ensure that the animals were fully anesthetized prior to surgery. Put ophthalmic ointment in the animal's eyes to prevent the corneas from drying out. • The fur on the surgical area of animal's lower body was shaved, and the skin of the surgical area was swabbed with 3 rounds of Betadine and 70% ethanol. The skin was allowed to dry before surgery. • A longitudinal incision will be made by scalpel at the lower lumbar and sacral levels, exposing the paraspinal muscles on the left side. The retractor was used to separate the muscles and tissues to expose the vertebra. • The left L5 and L6 spinal nerves will be isolated and tightly ligated with 6-0 silk thread. • The wound was closed with sutures. • The surgical instruments were cleaned, and sterilized by using a glass bead sterilizer. • Animals were placed on the electric blanket after surgery. Inject 5 ml sterile saline to prevent dehydration. The animals were returned to their home cage after fully awake (walking around).
1.2. Baseline Test of Cold Allodynic and Grouping
The baseline of cold allodynic was measured in rats two days before dosing. Use a pipette to apply 100 μl of acetone to the animal's lateral hind paw skin and the time of slapping, flinching, lifting, licking of the affected paw were recorded for one minute. Acetone was applied twice in total and the two applications were 10 minutes apart. The sum of the two times was recorded as cold allodynic time in rats. The rats were grouped randomized according to the results of baseline test of cold allodynic the day before dosing.
1.3. Cold Allodynic Testing
A pipette was used to apply 100 μl of acetone to the animal's lateral hind paw skin two hours after dosing and the time of slapping, flinching, lifting, licking of the affected paw were recorded for one minute. Acetone was applied twice and the two applications were 10 minutes apart. The sum of the two times was recorded as cold allodynic time in rats.
Oral administration was performed two hours before cold allodynic testing.
1.5. Data Collection and Analysis
Data were collected with Excel and analyzed with Prism.

The target of assay [2] is T1, hERG potassium ion channel (Homo sapiens, UniProt Q12809).
T1 construct: host or cells: CHO
T1 sequence (Q12809 whole entry): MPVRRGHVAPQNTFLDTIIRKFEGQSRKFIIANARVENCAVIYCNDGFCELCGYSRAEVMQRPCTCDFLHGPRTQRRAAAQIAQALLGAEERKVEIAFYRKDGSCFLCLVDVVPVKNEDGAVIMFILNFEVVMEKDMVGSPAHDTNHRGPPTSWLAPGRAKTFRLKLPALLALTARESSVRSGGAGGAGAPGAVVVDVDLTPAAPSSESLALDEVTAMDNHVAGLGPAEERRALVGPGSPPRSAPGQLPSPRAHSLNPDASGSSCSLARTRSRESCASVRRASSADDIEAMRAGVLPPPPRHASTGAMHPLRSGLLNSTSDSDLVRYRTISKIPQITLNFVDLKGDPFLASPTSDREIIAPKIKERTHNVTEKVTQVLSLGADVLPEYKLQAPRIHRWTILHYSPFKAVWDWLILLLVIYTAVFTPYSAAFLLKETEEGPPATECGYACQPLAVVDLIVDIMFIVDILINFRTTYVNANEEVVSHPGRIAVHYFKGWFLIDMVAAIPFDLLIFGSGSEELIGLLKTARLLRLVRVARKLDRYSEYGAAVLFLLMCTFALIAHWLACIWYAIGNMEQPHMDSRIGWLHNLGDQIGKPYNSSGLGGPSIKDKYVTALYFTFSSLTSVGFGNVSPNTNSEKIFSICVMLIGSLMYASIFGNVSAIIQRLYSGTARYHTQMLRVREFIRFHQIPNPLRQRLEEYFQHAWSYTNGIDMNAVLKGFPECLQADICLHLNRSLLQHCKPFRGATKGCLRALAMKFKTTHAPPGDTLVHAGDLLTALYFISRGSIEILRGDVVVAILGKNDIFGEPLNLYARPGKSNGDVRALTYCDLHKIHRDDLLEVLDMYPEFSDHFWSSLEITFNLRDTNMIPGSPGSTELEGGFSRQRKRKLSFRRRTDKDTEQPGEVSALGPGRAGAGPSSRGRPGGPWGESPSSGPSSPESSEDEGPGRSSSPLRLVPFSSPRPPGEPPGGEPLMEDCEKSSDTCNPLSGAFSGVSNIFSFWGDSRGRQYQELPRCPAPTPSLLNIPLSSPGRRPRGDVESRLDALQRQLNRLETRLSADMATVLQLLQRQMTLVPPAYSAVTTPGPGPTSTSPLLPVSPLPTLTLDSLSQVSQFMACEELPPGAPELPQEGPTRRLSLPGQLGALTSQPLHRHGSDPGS
Kind of assay: Effect on hERG potassium ion channel (CHO hERG cells, manual patch clamp). The assay is classed as cell-based. As to conditions: final 10 μM test concentration, read-out: hERG inhibitory concentration IC50. How it is done:
Assay 2: Effect on hERG Potassium Ion Channel 2.1 Cell Culture 2.1.1 Cells used in this experiment were CHO cell lines (supplied by Sophion Bioscience, Denmark) which were hERG cDNA transfectant and stably express hERG channels, and cell progeny was P15. Cells were cultured in medium containing the following ingredients Invitrogen): Ham's F12 medium, 10% (v/v) inactivated fetal bovine serum, […] Geneticin. 2.1.2 CHO hERG cells were grown in Petri dishes containing the above medium and cultured in an incubator containing 5% CO2 at 37° C. CHO hERG cells were transferred onto round glass plates in Petri dishes, and grown on the same culture medium under culture conditions as above for 24 h to 48 h prior to the electrophysiological experiments, and the density of CHO hERG cells on each round glass plate needs to meet the requirements that the vast majority of cells are independent and individual. 2.2 Experimental Solution The following solutions (supplied by Sophion) were used for electrophysiological recording as shown in Table 3. The reagents used in this test were provided by Sigma. [table] 2.3 Electrophysiological Recording System In this experiment, whole-cell current recording was performed using a manual patch clamp system (HEKA EPC-10 signal amplification and digital conversion system, purchased from HEKA Electronic, Germany). The round glass slide, surface of which CHO hERG cells were grown on was placed in an electrophysiological recording slot under an inverted microscope. Extracellular fluid was used for steady perfision in recording slot (approximately 1 ml per minute). A conventional whole-cell patch clamp current recording technique was used in the experiment. Unless otherwise specified, experiments were performed at normal room temperature (25° C.). Cell clamping was at −80 mV. Cell clamping voltage depolarized to +20 mV to activate hERG potassium channel, clamping to −50 mV after 5 sec to eliminate inactivation and generate tail currents. The tail current peak was used as a value for hERG current. The hERG potassium current recorded in the above steps could be superfused for test drug after the steady perfusion state of the extracellular fluid in the recording slot is stabilized until the inhibition of the hERG current by the drug reached a steady state. The coincidence of the last three consecutive current recording lines was generally used as a criterion to determine whether the state is stable. After reaching a steady state, perfused with extracellular fluid until hERG current returned to the value before the drug adding. One or more drugs could be tested on a single cell, or multiple concentrations of the same drug, but needed to be rinsed with extracellular fluid between different drugs. […] 2.4 Compound Treatment and Dilution The compound was firstly dissolved in DMSO to a concentration of 10 mM and then the compound was diluted 1000-fold to the final […] test concentration using an extracellular solution. The final concentration of DMSO in the compound test solution was equal to 0.1%. […] All stock solutions and test solutions were subjected to regular 5-10 minute sonication and shaken to ensure complete dissolution of the compound. 2.5 Data Analysis The test data were analyzed by the data analysis software provided by HEKA Patchmaster (V2x73.2), Microsoft Excel and Graphpad Prism 5.0.

[3] abbreviates: 30 mg/kg p.o., two hours after dosing.

For the molecule `Cc1cc(N2CCN(Cc3cc(F)c(C(=O)NS(=O)(=O)C4CC4)cc3Cl)CC2)ccc1Cl` [Compound Z-164], in assay [1] (setting [3]), the “Anti-allodynia Effect (mean, %)” value is reported as 39.7% and the “Response duration (mean, s) the next day (Baseline)” value was found to be 24.327 s. Also, in assay [1] (30 mg/kg, 2 hr post oral administration), the “inhibition of SNL-induced cold allodynia (in words)” value is “statistically significant inhibitory effect; also recorded: inhibition of SNL-induced cold allodynia”. Moreover, the “Response duration (mean, s) the first day (Baseline)” value in assay [1] (acetone cold allodynia, baseline before dosing) amounted to 36.831 s.
For `C[C@@H]1CN(c2ccc(Cl)c(Cl)c2)CCN1Cc1cc(F)c(C(=O)NS(=O)(=O)C2CC2)cc1Cl` [Compound Z-172, (R)-5-Chloro-N-(cyclopropylsulfonyl)-4-((4-(3,4-dichlorophenyl)-2-methylpiperazin-1-yl)methyl)-2-fluorobenzamide], the IC50 in assay [2] was more than 10 µM.
With `O=C(NS(=O)(=O)C1CC1)c1cc(Cl)c(CN2CCN(c3ccc(C4CC4)c(Cl)c3)CC2)cc1F` [Compound Z-173], the IC50 in assay [2] is more than 10 µM.
On the same count and under the same terms, to `Cc1ccc(N2CCN(Cc3cc(F)c(C(=O)NS(=O)(=O)C4CC4)cc3Cl)CC2)cc1Cl` [Compound Z-177] belongs more than 10 µM.
For `CCc1cc(N2CCN(Cc3cc(F)c(C(=O)NS(=O)(=O)C4CC4)cc3Cl)CC2)ccc1Cl` [Compound Z-178], the IC50 in assay [2] is more than 10 µM.
`CCc1cc(C(=O)NS(=O)(=O)C2CC2)c(F)cc1CN1CCN(c2ccc(OC(F)(F)F)cc2)CC1` [Compound Z-189, N-(cyclopropylsulfonyl)-5-ethyl-2-fluoro-4-((4-(4-(trifluoromethoxy)phenyl)piperazin-1-yl)methyl)benzamide]: the IC50 in assay [2] was more than 10 µM.
